This is an account of results in paper PMC8279013 (Toxicology letters, 2020).

In the assay the target is T1, pregnane X receptor (PXR) (Homo sapiens, UniProt O75469).
T1 sequence (O75469 1-434): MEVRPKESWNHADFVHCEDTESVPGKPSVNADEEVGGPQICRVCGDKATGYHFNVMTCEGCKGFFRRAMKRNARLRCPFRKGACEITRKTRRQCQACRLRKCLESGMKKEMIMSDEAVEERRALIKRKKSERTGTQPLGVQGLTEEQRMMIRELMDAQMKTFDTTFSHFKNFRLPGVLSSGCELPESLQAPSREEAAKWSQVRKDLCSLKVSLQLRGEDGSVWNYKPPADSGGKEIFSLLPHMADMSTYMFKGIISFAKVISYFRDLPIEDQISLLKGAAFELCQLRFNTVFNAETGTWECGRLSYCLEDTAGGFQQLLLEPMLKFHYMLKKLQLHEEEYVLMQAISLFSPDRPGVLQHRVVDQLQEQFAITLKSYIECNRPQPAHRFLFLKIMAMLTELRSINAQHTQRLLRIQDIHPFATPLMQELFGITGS
As to the kind of experiment: PXR element luciferase reporter, RIF-stimulated, stable hPXR-HRE cells. The class given is cell-based.

In turn, `CC(=O)N1CCN(c2ccc(OC[C@H]3CO[C@](Cn4ccnc4)(c4ccc(Cl)cc4Cl)O3)cc2)CC1` (racemic) [ketoconazole] registered an IC50 of 22.4 µM.
